How the values were obtained:
Assay type in all cases: in vivo
[1] = test system: Alopecurus myosuroides (ALOMY); test: Pre-emergence herbicidal glasshouse test on Alopecurus myosuroides; settings: pre-emergence; 1000 g/h; evaluated after 13 days
Description: (§1) Seeds of a variety of test species are sown in standard soil in pots (Alopecurus myosuroides (ALOMY), Setaria faberi (SETFA), Echinochloa crus-galli (ECHCG), Solanum nigrum (SOLNI), Amaranthus retoflexus (AMARE), Ipomoea hederacea (IPOHE)). After cultivation for one day (pre-emergence) or after 8 days cultivation (post-emergence) under controlled conditions in a glasshouse (at 24/16° C., day/night; 14 hours light; 65% humidity), the plants are sprayed with an aqueous spray solution derived from the formulation of the technical active ingredient in acetone/water (50:50) solution containing 0.5% Tween 20 (polyoxyethelyene sorbitan monolaurate, CAS RN 9005-64-5). Compounds are applied at 1000 g/h. The test plants are then grown in a glasshouse under controlled conditions in a glasshouse (at 24/16° C., day/night; 14 hours light; 65% humidity) and watered twice daily. After 13 days for pre and post-emergence, the test is evaluated for the percentage herbicidal damage caused to the plant. The biological activities are shown in the following table on a five point scale (5=80-100% damage; 4=60-79% damage; 3=40-59% damage; 2=20-39% damage; 1=0-19% damage).

[2] = test system: Setaria faberi (SETFA); test: Pre-emergence herbicidal glasshouse test on Setaria faberi; settings: pre-emergence; 1000 g/h; evaluated after 13 days
Description: as §1

[3] = test system: Echinochloa crus-galli (ECHCG); test: Pre-emergence herbicidal glasshouse test on Echinochloa crus-galli; settings: pre-emergence; 1000 g/h; evaluated after 13 days
Description: as §1

[4] = test system: Solanum nigrum (SOLNI); test: Pre-emergence herbicidal glasshouse test on Solanum nigrum; settings: pre-emergence; 1000 g/h; evaluated after 13 days
Description: as §1

[5] = test system: Amaranthus retoflexus (AMARE); test: Pre-emergence herbicidal glasshouse test on Amaranthus retoflexus; settings: pre-emergence; 1000 g/h; evaluated after 13 days
Description: as §1

[6] = test system: Alopecurus myosuroides (ALOMY); test: Post-emergence herbicidal glasshouse test on Alopecurus myosuroides; settings: post-emergence; 1000 g/h; evaluated after 13 days
Description: as §1

[7] = test system: Setaria faberi (SETFA); test: Post-emergence herbicidal glasshouse test on Setaria faberi; settings: post-emergence; 1000 g/h; evaluated after 13 days
Description: as §1

[8] = test system: Echinochloa crus-galli (ECHCG); test: Post-emergence herbicidal glasshouse test on Echinochloa crus-galli; settings: post-emergence; 1000 g/h; evaluated after 13 days
Description: as §1

[9] = test system: Solanum nigrum (SOLNI); test: Post-emergence herbicidal glasshouse test on Solanum nigrum; settings: post-emergence; 1000 g/h; evaluated after 13 days
Description: as §1

[10] = test system: Amaranthus retoflexus (AMARE); test: Post-emergence herbicidal glasshouse test on Amaranthus retoflexus; settings: post-emergence; 1000 g/h; evaluated after 13 days
Description: as §1

[11] = test system: Ipomoea hederacea (IPOHE); test: Post-emergence herbicidal glasshouse test on Ipomoea hederacea; settings: post-emergence; 1000 g/h; evaluated after 13 days
Description: as §1

[12] = test system: Ipomoea hederacea (IPOHE); test: Pre-emergence herbicidal glasshouse test on Ipomoea hederacea; settings: pre-emergence; 1000 g/h; evaluated after 13 days
Description: as §1

| Structure (SMILES) | PRE Application ALOMY herbicidal damage (five point scale) [1] | PRE Application SETFA herbicidal damage (five point scale) [2] | PRE Application ECHCG herbicidal damage (five point scale) [3] | PRE Application SOLNI herbicidal damage (five point scale) [4] | PRE Application AMARE herbicidal damage (five point scale) [5] | POST Application ALOMY herbicidal damage (five point scale) [6] | POST Application SETFA herbicidal damage (five point scale) [7] | POST Application ECHCG herbicidal damage (five point scale) [8] | POST Application SOLNI herbicidal damage (five point scale) [9] | POST Application AMARE herbicidal damage (five point scale) [10] | POST Application IPOHE herbicidal damage (five point scale) [11] | PRE Application IPOHE herbicidal damage (five point scale) [12] |
| --- | --- | --- | --- | --- | --- | --- | --- | --- | --- | --- | --- | --- |
| CCn1ncc(-c2ccc(S(C)(=O)=O)c(C3=NOCC3)c2Cl)c(O)c1=O [Compound 1.009] | 5 (5=80-100% damage) | 5 (5=80-100% damage) | 5 (5=80-100% damage) | 5 (5=80-100% damage) | 5 (5=80-100% damage) | 5 (5=80-100% damage) | 5 (5=80-100% damage) | 5 (5=80-100% damage) | 5 (5=80-100% damage) | 5 (5=80-100% damage) | 5 (5=80-100% damage) | – |
| CC(C)n1ncc(-c2c(Cl)ccc(Cl)c2Cl)c(O)c1=O [Compound 1.015] | 1 (1=0-19% damage) | 1 (1=0-19% damage) | 1 (1=0-19% damage) | – | – | 1 (1=0-19% damage) | 1 (1=0-19% damage) | 2 (2=20-39% damage) | 4 (4=60-79% damage) | 2 (2=20-39% damage) | 4 (4=60-79% damage) | 1 (1=0-19% damage) |
| Cc1cccn(-c2cnn(C)c(=O)c2O)c1=O [Compound 1.062] | 1 (1=0-19% damage) | 1 (1=0-19% damage) | 1 (1=0-19% damage) | 1 (1=0-19% damage) | – | 2 (2=20-39% damage) | 4 (4=60-79% damage) | 5 (5=80-100% damage) | 4 (4=60-79% damage) | 5 (5=80-100% damage) | 5 (5=80-100% damage) | 1 (1=0-19% damage) |
| Cc1ccn(-c2cnn(C)c(=O)c2O)c(=O)c1 [Compound 1.065] | 1 (1=0-19% damage) | 2 (2=20-39% damage) | 3 (3=40-59% damage) | 1 (1=0-19% damage) | 5 (5=80-100% damage) | 1 (1=0-19% damage) | 5 (5=80-100% damage) | 5 (5=80-100% damage) | 4 (4=60-79% damage) | 5 (5=80-100% damage) | 4 (4=60-79% damage) | – |

Source: patent US9693556B2, “Herbicidal pyridazinone derivatives” (SYNGENTA LIMITED, priority 2011, dated 2017)
